Patent publication US10239835B2, “N-alkylaryl-5-oxyaryl-octahydro-cyclopenta[c]pyrrole negative allosteric modulators of NR2B” (Luc Therapeutics, Inc., priority 2014, dated 2019)

Tests used:
[1] = biological target: HEK293 cells expressing NR1/NR2B (Homo sapiens (Human), UniProt Q05586+Q13224); experiment: NR2B NAM Assay (FDSS Ca2+ influx cell assay); type: cell-based; settings: NR2B NAM assay, class of inhibitory concentration; read-out: Activity Category
Method: (§1) Cell Culture and plating: HEK293 cells expressing NR1/NR2B (Chantest, Cleveland, Ohio) were grown to 70-80% confluency as an adherent monolayer in standard tissue culture flasks at 37° C., 5% CO2 per supplier's instructions. NR2B expression was induced by incubation with 0.3-0.4 μg/ml tetracycline in the presence of 4 mM ARL-15896 for 18-24 hours under the same growth conditions, then transferred to 30° C. for another 3-5 hours.
(§2) After induction, cell culture medium was removed and cells were rinsed once with Ca^2+ and Mg^2+-free Dulbecco's phosphate buffered saline. Cells were then removed from the flask using TrypLE™ Express (Life Technologies) according to the manufacturer's instructions and collected to 50 ml centrifuge tubes. Following two washes in Ca^2+/Mg^2+-free HBSS with 20 mM HEPES (HHnoCa), cells were counted and viability assessed using trypan blue. To load cells with Ca^2+-sensitive dye, they were resuspended in fluo-8 plus Component B (AAT Bioquest Products) diluted in HHnoCa and incubated 15 minutes at 37° C., followed by 30 minutes at room temp (in dark). Cells were then washed and resuspended in HHnoCa to remove extracellular dye and plated in 384-well plates (Falcon, uncoated) at 20,000-30,000 cells/well in a final volume of 25 μl/well.
(§3) FDSS Assay: To each well of the plate, 10 μL test compound, control (MK801) or HHnoCa buffer was added at different concentrations to yield final concentrations of 0.001, 0.003, 0.010, 0.030, 0.100, 0.300, 1.000, 3.000, 10.000, or 30.000 uM final concentration of DMSO of 0.1%. Following 10 minutes pre-incubation in the dark, plates are loaded onto the Hamamatsu FDSS 6000. After collecting baseline fluorescence images, 3 μM glutamate, 3 μM glycine, and 1 mM Ca^2+ in HHnoCa buffer is added to each well, and Ca^2+ is recorded for 3 minutes. Data were processed by computing ratio of fluorescence at the end of data collection to baseline fluorescence to assess degree of Ca^2+ influx inhibition relative to that observed in MK801.
(§4) Table 8 below provides activity of each compound according to the legend that “++++” indicates inhibition at a concentration<100 nM; “+++” indicates inhibition at a concentration between 100 nM and 1 μM of the disclosed compound; “++” indicates inhibition at a concentration of from 1 μM to 10 μM; and “+” indicates inhibition at a concentration>10 μM.

[2] = biological target: HEK293 cells expressing NR1/NR2B (Homo sapiens (Human), UniProt Q13224); experiment: NR2B NAM Assay (FDSS Ca2+ influx cell assay); type: cell-based; settings: Ca2+ influx inhibition relative to MK801; 3 μM glutamate, 3 μM glycine, 1 mM Ca2+; read-out: NR2B NAM IC50
Method: as §1, §2, §3, §4

HEK293 cells expressing NR1/NR2B (Homo sapiens (Human), UniProt Q05586+Q13224), sequence (Q13224 27-1484, other chains not shown): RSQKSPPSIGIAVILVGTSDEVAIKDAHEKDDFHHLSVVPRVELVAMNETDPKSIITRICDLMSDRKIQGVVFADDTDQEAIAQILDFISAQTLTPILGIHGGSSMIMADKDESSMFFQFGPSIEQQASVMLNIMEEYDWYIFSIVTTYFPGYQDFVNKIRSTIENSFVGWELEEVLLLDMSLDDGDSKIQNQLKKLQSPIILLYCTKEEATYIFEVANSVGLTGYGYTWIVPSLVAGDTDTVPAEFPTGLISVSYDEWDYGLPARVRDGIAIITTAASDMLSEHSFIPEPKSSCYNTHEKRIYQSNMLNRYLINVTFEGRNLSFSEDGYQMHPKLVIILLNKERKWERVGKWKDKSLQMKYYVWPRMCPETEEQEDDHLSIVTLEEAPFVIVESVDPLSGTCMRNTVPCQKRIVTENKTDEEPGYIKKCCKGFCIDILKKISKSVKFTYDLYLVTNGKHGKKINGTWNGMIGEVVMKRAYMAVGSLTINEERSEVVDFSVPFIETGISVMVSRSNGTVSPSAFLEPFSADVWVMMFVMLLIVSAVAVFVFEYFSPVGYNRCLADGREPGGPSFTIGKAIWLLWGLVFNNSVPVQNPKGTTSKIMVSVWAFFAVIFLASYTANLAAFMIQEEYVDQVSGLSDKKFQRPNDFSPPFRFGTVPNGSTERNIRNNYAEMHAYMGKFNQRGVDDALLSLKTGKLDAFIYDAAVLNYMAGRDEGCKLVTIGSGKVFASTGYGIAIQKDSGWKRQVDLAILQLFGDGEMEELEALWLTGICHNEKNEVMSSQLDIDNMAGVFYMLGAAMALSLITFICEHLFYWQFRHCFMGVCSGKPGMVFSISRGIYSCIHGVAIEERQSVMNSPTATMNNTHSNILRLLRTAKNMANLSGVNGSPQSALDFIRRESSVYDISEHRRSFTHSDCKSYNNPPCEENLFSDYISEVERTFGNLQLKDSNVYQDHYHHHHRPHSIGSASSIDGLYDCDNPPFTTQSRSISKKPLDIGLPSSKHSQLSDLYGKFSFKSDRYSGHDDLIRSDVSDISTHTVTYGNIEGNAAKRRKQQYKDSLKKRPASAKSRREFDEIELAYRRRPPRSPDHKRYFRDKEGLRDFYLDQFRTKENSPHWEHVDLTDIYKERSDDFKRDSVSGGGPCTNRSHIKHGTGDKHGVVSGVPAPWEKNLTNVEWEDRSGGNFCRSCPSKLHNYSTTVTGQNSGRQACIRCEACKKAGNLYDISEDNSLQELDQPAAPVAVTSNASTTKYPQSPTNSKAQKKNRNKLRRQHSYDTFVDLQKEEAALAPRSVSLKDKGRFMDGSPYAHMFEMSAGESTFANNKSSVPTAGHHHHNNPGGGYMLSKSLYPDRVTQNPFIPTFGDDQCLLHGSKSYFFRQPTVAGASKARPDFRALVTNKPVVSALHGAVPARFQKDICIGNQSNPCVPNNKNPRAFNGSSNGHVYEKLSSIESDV
HEK293 cells expressing NR1/NR2B (Homo sapiens (Human), UniProt Q13224), sequence (Q13224 27-1484, other chains not shown): as above

| Structure (SMILES) | IC50 [1] [nM] | IC50 [2] [nM] |
| --- | --- | --- |
| Oc1ccc(C(O)CN2C[C@H]3C[C@@H](Oc4cccnc4)C[C@H]3C2)cc1 (stereo partly shown) | 1000 to 10000 | 8000 |
| O=C(CN1C[C@H]2C[C@H](Oc3cncnc3)C[C@H]2C1)c1ccc(O)cc1 | 1000 to 10000 | 1040 |
| COc1ccc(F)c(O[C@H]2C[C@@H]3CN(CC(=O)c4ccc(O)cc4)C[C@@H]3C2)c1 | 100 to 1000 | 631 |
| O=S(=O)(c1ccccc1)[C@H]1C[C@@H]2CN(CC(O)c3ccc(O)c(F)c3)C[C@@H]2C1 (stereo partly shown) | > 10000 | 10000 |
| O=C(CN1C[C@H]2C[C@H](Oc3cccnc3F)C[C@H]2C1)c1ccc(O)c(F)c1 | > 10000 | 10000 |
| O=C(CN1C[C@H]2C[C@H](Oc3ccccc3Cl)C[C@H]2C1)c1ccc(O)cn1 | 1000 to 10000 | 1660 |
| Cc1ccc(O[C@H]2C[C@@H]3CN(CC(=O)c4ccc(O)cc4)C[C@@H]3C2)c(F)c1 | 100 to 1000 | 210 |
| O=C(CN1C[C@H]2C[C@H](Oc3ccc(F)cc3F)C[C@H]2C1)c1ccc(O)cn1 | 1000 to 10000 | 1150 |
| N#Cc1ccc(O[C@H]2C[C@@H]3CN(CC(O)c4ccc(O)c(F)n4)C[C@@H]3C2)cc1 (stereo partly shown) | 100 to 1000 | 367 |
| COC(CN1C[C@H]2C[C@H](Oc3ccc(F)cc3)C[C@H]2C1)c1ccc(O)cc1 (stereo partly shown) | 100 to 1000 | 139 |
| O=C(CN1C[C@H]2C[C@H](Oc3cccnc3)C[C@H]2C1)c1ccc(O)c(F)c1 | 100 to 1000 | 434 |
| COc1ccc(O[C@H]2C[C@@H]3CN(CC(=O)c4ccc(O)cn4)C[C@@H]3C2)cc1 | > 10000 | 10000 |
| N#Cc1ccc(O[C@H]2C[C@@H]3CN(CC(=O)c4ccc(O)cn4)C[C@@H]3C2)cc1 | > 10000 | 10000 |
| O=C(CN1C[C@H]2C[C@@H](Oc3cc(F)cc(F)c3)C[C@H]2C1)c1ccc(O)cn1 | > 10000 | 10000 |
| COc1ncccc1O[C@H]1C[C@@H]2CN(CC(=O)c3ccc(O)cc3)C[C@@H]2C1 | > 10000 | 10000 |
| O=C(CN1C[C@H]2C[C@H](Oc3ccc(F)cc3)C[C@H]2C1)c1cnn(Cc2ccccc2)c1 | > 10000 | 10000 |
| Oc1ccc([C@H](O)CN2C[C@H]3C[C@H](Oc4ccccc4)C[C@H]3C2)nc1 | < 100 | 5.24 |
| O=C(CN1C[C@H]2C[C@H](Oc3ccc(F)nc3)C[C@H]2C1)c1ccc(O)cc1 | < 100 | 55.2 |
| Oc1ccc(C(O)CN2C[C@H]3C[C@H](Oc4cnccn4)C[C@H]3C2)cc1 (stereo partly shown) | 100 to 1000 | 243 |

| Structure (SMILES) | IC50 [1] [nM] | IC50 [2] [nM] |
| --- | --- | --- |
| N#Cc1ccc(O[C@H]2C[C@@H]3CN(CC(O)c4ccc(O)cc4)C[C@@H]3C2)cc1 (stereo partly shown) | < 100 | 47.4 |
| O=C(CN1C[C@H]2C[C@H](Oc3ccccc3F)C[C@H]2C1)c1ccc(O)cn1 | 100 to 1000 | 219 |
| Oc1ccc(C(O)CN2C[C@H]3C[C@@H](Oc4cc(F)cc(F)c4)C[C@H]3C2)nc1 (stereo partly shown) | 1000 to 10000 | 2920 |
| Oc1ccc(C(O)CN2C[C@H]3C[C@@H](Oc4ccc(F)cc4)C[C@H]3C2)cc1F (stereo partly shown) | < 100 | 30.5 |
| Oc1ccc(C(O)CN2C[C@H]3C[C@H](Oc4cccnc4)C[C@H]3C2)cc1F (stereo partly shown) | < 100 | 52.1 |
| N#Cc1ccc(O[C@H]2C[C@@H]3CN(CC(=O)c4ccc(O)c(F)n4)C[C@@H]3C2)cc1 | > 10000 | 10000 |
| COc1cccc(O[C@H]2C[C@@H]3CN(CC(=O)c4ccc(O)cc4)C[C@@H]3C2)c1F | 100 to 1000 | 117 |
| O=C(CN1C[C@H]2C[C@H](Oc3ccccc3)C[C@H]2C1)c1ccc(O)cc1 | < 100 | 10.7 |
| COc1ccc(O[C@@H]2C[C@@H]3CN(CC(=O)c4ccc(O)cn4)C[C@@H]3C2)cc1 | 1000 to 10000 | 7100 |
| O=C(CN1C[C@H]2C[C@H](S(=O)(=O)c3ccccc3)C[C@H]2C1)c1ccc(O)c(F)c1 | > 10000 | 10000 |
| Oc1ccc(C(O)CN2C[C@H]3C[C@H](Oc4ccc(F)c(F)c4)C[C@H]3C2)cc1 (stereo partly shown) | < 100 | 14 |
| OC(CN1C[C@H]2C[C@H](Oc3ccc(F)cc3)C[C@H]2C1)c1cn[nH]c1 (stereo partly shown) [drawing 256] | 1000 to 10000 | 4890 |
| O=C(CN1C[C@H]2C[C@H](Sc3ccc(F)cc3)C[C@H]2C1)c1ccc(O)cc1 | < 100 | 74 |
| COc1ccc(O[C@@H]2C[C@@H]3CN(CC(O)c4ccc(O)cn4)C[C@@H]3C2)cc1 (stereo partly shown) | 100 to 1000 | 440 |
| Cc1cccc(O[C@H]2C[C@@H]3CN(CC(=O)c4ccc(O)cn4)C[C@@H]3C2)c1F | 100 to 1000 | 435 |
| Oc1ccc(C(O)CN2C[C@H]3C[C@H](Oc4ccccc4F)C[C@H]3C2)cc1 (stereo partly shown) | < 100 | 4.44 |
| Cc1ccc(O[C@H]2C[C@@H]3CN(CC(=O)c4ccc(O)cc4)C[C@@H]3C2)cn1 | < 100 | 84.5 |
| N#Cc1ccc(O[C@@H]2C[C@@H]3CN(CC(O)c4ccc(O)cn4)C[C@@H]3C2)cc1 (stereo partly shown) | > 10000 | 10000 |

Second part, the molecule after the results:

| IC50 [1] [nM] | IC50 [2] [nM] | Structure (SMILES) |
| --- | --- | --- |
| < 100 | 94.6 | Oc1ccc(C(O)CN2C[C@H]3C[C@H](Oc4cccnc4)C[C@H]3C2)cc1 (stereo partly shown) |
| < 100 | 68.2 | N#Cc1ccc(O[C@H]2C[C@@H]3CN(CC(=O)c4ccc(O)cc4)C[C@@H]3C2)cc1 |
| < 100 | 60.2 | Cc1ccc(O[C@H]2C[C@@H]3CN(CC(O)c4ccc(O)cn4)C[C@@H]3C2)c(F)n1 (stereo partly shown) |
| < 100 | 20.6 | Oc1ccc(C(O)CN2C[C@H]3C[C@H](Sc4ccccc4F)C[C@H]3C2)nc1 (stereo partly shown) |
| < 100 | 6.81 | Oc1ccc(C(O)CN2C[C@H]3C[C@H](Oc4ccc(F)cc4F)C[C@H]3C2)nc1 (stereo partly shown) |
| < 100 | 20.9 | Oc1ccc(C(O)CN2C[C@H]3C[C@H](Oc4cccnc4F)C[C@H]3C2)nc1 (stereo partly shown) |
| < 100 | 9.36 | Oc1ccc(C(O)CN2C[C@H]3C[C@H](Sc4ccccc4)C[C@H]3C2)cc1 (stereo partly shown) |
| < 100 | 26.7 | O=C(CN1C[C@H]2C[C@H](Sc3ccccc3)C[C@H]2C1)c1ccc(O)cc1 |
| < 100 | 51.6 | COc1ccc(O[C@H]2C[C@@H]3CN(CC(O)c4ccc(O)cc4)C[C@@H]3C2)cc1 (stereo partly shown) |
| < 100 | 37.6 | Oc1ccc(C(O)CN2C[C@H]3C[C@@H](Oc4ccc(F)c(F)c4)C[C@H]3C2)nc1 (stereo partly shown) |
| < 100 | 4.41 | Oc1ccc(C(O)CN2C[C@H]3C[C@H](Oc4ccc(F)cc4)C[C@H]3C2)nc1 (stereo partly shown) |
| < 100 | 41.1 | O=C(CN1C[C@H]2C[C@H](Oc3ccc(F)cc3F)C[C@H]2C1)c1ccc(O)cc1 |
| < 100 | 16.8 | O=C(CN1C[C@H]2C[C@H](Oc3ccccc3F)C[C@H]2C1)c1ccc(O)cc1 |
| < 100 | 74.1 | Oc1ccc(C(O)CN2C[C@H]3C[C@H](Oc4ccc(F)nc4)C[C@H]3C2)cc1 (stereo partly shown) |
| < 100 | 80.7 | Oc1ccc(C(O)CN2C[C@H]3C[C@@H](Oc4ccc(F)c(F)c4)C[C@H]3C2)cc1 (stereo partly shown) |
| < 100 | 23.4 | Cc1cccc(O[C@H]2C[C@@H]3CN(CC(O)c4ccc(O)cn4)C[C@@H]3C2)c1F (stereo partly shown) |
| < 100 | 90 | Cc1ccc(O[C@H]2C[C@@H]3CN(CC(O)c4ccc(O)c(F)c4)C[C@@H]3C2)cn1 (stereo partly shown) |
| < 100 | 5.72 | Oc1ccc(C(O)CN2C[C@H]3C[C@H](Oc4ccccc4)C[C@H]3C2)nc1 (stereo partly shown) |
| < 100 | 58.3 | Oc1ccc(C(O)CN2C[C@H]3C[C@H](Oc4cc(F)cc(F)c4)C[C@H]3C2)nc1 (stereo partly shown) |
